Data taken from patent US20070078148A1, “Agents for preventing and/or treating higher brain dysfunctions” (Kyowa Hakko Kogyo Co., Ltd., priority 2003, published 2007).
Marks after values point to notes of the source that are not given here.

Experiments:
Type in all cases: in vivo, rat
Wistar (Han) male rats = test: Test for learning a delayed alternating problem (non-matching to sample, Skinner box); details: 0.3 mg/kg oral once a day
Protocol: The test was carried out in a manner similar to the method as described in Drug Dev. Res., 35, p.83-95 (1996).
Experiment was carried out using 10 Wistar (Han) male rats (body weight 200-250 g) for one group.
A Skinner box (30 cm×25 cm×30 cm) equipped with 3 pull-type lever (at the center, left and right sides) connected to a feeding vessel (supplying 45 mg diet pellet) was used in the experiment. The control of the test condition and the data accumulation were automatically conducted by connecting with a MED.PC program system.
Each rat received learning and training of lever pushing, and thereafter learning and training of a delayed alternating problem. In the learning and training of lever pushing, the rat learned and was trained so that the diet could be obtained by pushing any one of the center, left and right pull-type levers. In the subsequent learning and training of delayed alternating problem, the rat learned and was trained that the diet could be obtained by pushing any one of the left and right levers at first, and then the pushed lever was withdrawn; then, 5 seconds after that, both of the left and right levers were presented, but the diet was supplied only when the opposite side lever of the one pushed previously was pushed.
The test compound was used as a suspension thereof in injectable distilled water containing 0.5% methylcellulose (MC) (Otsuka Pharmaceutical Co.) and was administered orally to each of the rats which learned and trained the lever pushing at a dose of 10 mL/kg volume once a day from the start of learning and training of a delayed alternating problem continuously for a week (Test compound-administered group). Separately, to each of the rats which learned and trained the lever pushing, 0.5% MC solution alone was orally administered at a dose of 10 mL/kg volume once a day from the start of learning and training of a delayed alternating problem continuously for 1 week, and the rats were referred to as Solvent-administered group.
The accuracy rate for the reaction was indicated by the rate (%) of correctly selecting the left or right lever (average of 10 rats), and the test results were analyzed by one-way ANOVA-Student's t test.

albino female rats = test: Test for learning of passive avoidance (scopolamine-induced impairment of memory); details: for Rate of the rats exhibiting passive avoidance behavior (%) / Rate of the rats exhibiting passive avoidance behavior (rats/total): 2 hours after administration
Protocol: Experiment was carried out using 32 albino female rats (body weight: about 100 g) for one group.
Test for learning of passive avoidance was conducted in a test box (40 cm×31 cm×29 cm) in which a stainless steel grid was spread on the floor so that an electric shock of 1.1 mA can be give randomly. In the test box, a plastic plate (15 cm×5 cm) of 0.5 cm thickness was placed at a corner to cover the floor; and the test box comprised a mechanism that when a rat placed on the plate steps down on the floor grid, the rat results in receiving an electric shock. Usually, the rat attacked by an electric shock immediately gets back on the plastic plate but tries to get down on the floor; then, the rat is attacked by an electric shock again. Usually, the rat gradually changes its behavior with repetition of the shock (learning and training), resulting in staying on the plastic plate (passive avoidance behavior).
After the learning and training, the rats keeping the memory were selected and used for the test based on the memory-keeping test as mentioned below.
The test compound was used as a suspension thereof in distilled water containing 0.3% Tween-80; and scopolamine was used as a solution thereof in distilled water (by Sigma).
To each of the rats which learned the passive avoidance behavior, immediately after learning, 1 mg/kg (2 mL/kg volume) of scopolamine (subcutaneous administration) and 2 mL/kg volume of a test compound (oral administration) was administered simultaneously (Test compound-administered group); and 2 hours after administration, the rats were evaluated whether they kept memory of learning of the passive avoidance behavior. Separately, to each of the rats which learned the passive avoidance behavior, immediately after learning, 2 mL/kg volume of 0.3% Tween-80 solution alone was orally administered, and the rats were referred to as Solvent-administered group; while in the same manner, the rats to which 1 mg/kg of scopolamine (2 mL/kg volume) each were administered subcutaneously, were referred to as Scopolamine-administered group.

SD male rats = test: Test for learning of active avoidance (shuttle box, conditioned avoidance behavior); details: 1 hour before the test; for Avoidance rate (%): average in 10 rats, Solvent 90.8
Protocol: Experiment was carried with using 10 SD male rats (body weight: 220-280 g) for one group.
Using a shuttle box apparatus consisting of two boxes (TK-401S; Unicom), the rats were made to learn and train (escape training) conditioned avoidance behavior. In one trial in the escape training, an alarm stimulus by light and buzzer sound as a conditioned stimulus was given to the rats for 8 seconds. […] Repetition of the trial was conducted at interval times of 5 seconds, and the escape training was repeated 50 trials/1 training/1 day for 10 days.
The test compound was used as a suspension in injectable distilled water containing 0.3% Tween-80 (by Otsuka Pharmaceutical Co., Ltd.; 0.3% Tween-80 solution) and orally administered to each of the rats at a dose of 10 mL/kg 1 hour before the test (Test compound-administered group). Separately, 0.3% Tween-80 solution alone was orally administered to each of the rats at a dose of 10 mL/kg 1 hour before the test (Solvent-administered group).
For analysis of the test results, various parameters were inputted in a personal computer (NEC; PC-9821Xe) and the avoidance rate (%) (average in 10 rats; the rats which took avoidance behavior by an alarm stimulus was regarded as successful escape; the avoidance rate when the rat succeeded in escaping all 50 trials was regarded as 100%) and the change of the total reaction latency (the time required for the completion of the whole trial) were compared with those of Solvent-administered group. The analysis was carried out by a Steel-test.

[1] = test system: Wistar female rats with bilateral ligation of the common carotid arteries; test: Maze-learning test in rats prepared by bilateral ligation of the common carotid arteries; details: FIG. 1
Protocol: Experiment was carried out using 10 Wistar female rats (body weight 210-310 g) for one group.
Under anesthesia with pentobarbital, the necks of rats were incised and the bilateral common carotid arteries were ligated (ligated rats). Separately, the necks of rats were incised but the bilateral common carotid arteries were not ligated (sham operation rats). Under anesthesia with pentobarbital, the rat was fixed on a brain-fixing apparatus for rat (Narishige; SR-6). Hydrogen electrodes (Unique Medical; UHE-100, IS needle type) were inserted into a brain coordinate (A2.0, L2.0, D-2.0). Hydrogen indifferent electrode (Unique Medical) was placed on the rat's neck. An artificial respiration was applied to the rat through a respiratory apparatus (Shinano Seisakusyo; SN-480-7), through which about 40 mL of hydrogen gas was forcibly inhaled 2 or 3 times at intervals of about 15 minutes. […]
Running for the maze-learning test was performed twice. […] At that time, the frequency of selection of the lanes required for obtaining the 4 hollows of milk was recorded up to 16th round of selection.
The maze-learning test was started from 4 weeks after the bilateral ligation of the common carotid arteries. […] The lanes on which blocks were placed in the first running were determined according to each rat and were maintained constantly during the test period. […]

[2] = 0.3 mg/kg oral with scopolamine 1 mg/kg s.c.
[3] = 3.0 mg/kg oral with scopolamine 1 mg/kg s.c.
[4] = 30 mg/kg oral with scopolamine 1 mg/kg s.c.

SMILES	Accuracy Rate for the reaction everyday (%) (Mean ± Standard deviation) (Wistar (Han) male rats; 1st day, Solvent 48.3 ± 2.9)	Accuracy Rate for the reaction everyday (%) (Mean ± Standard deviation) (Wistar (Han) male rats; 3rd day, Solvent 39.4 ± 2.9)	Accuracy Rate for the reaction everyday (%) (Mean ± Standard deviation) (Wistar (Han) male rats; 5th day, Solvent 47.7 ± 2.1)	Accuracy rate for the reaction in a week (%) (Mean ± Standard deviation) (Wistar (Han) male rats; in a week, Solvent 45.4 ± 1.6, 0.3 mg/kg)	Rate of the rats exhibiting passive avoidance behavior (%) (albino female rats; [2])	Rate of the rats exhibiting passive avoidance behavior (rats/total) (albino female rats; [2])	Rate of the rats exhibiting passive avoidance behavior (%) (albino female rats; [3])	Rate of the rats exhibiting passive avoidance behavior (rats/total) (albino female rats; [3])	Rate of the rats exhibiting passive avoidance behavior (%) (albino female rats; [4])	Rate of the rats exhibiting passive avoidance behavior (rats/total) (albino female rats; [4])	Rate of the rats exhibiting the passive avoidance behavior in comparison with Scopolamine-administered group (albino female rats; administered simultaneously with scopolamine, p<0.05 Two-tailed Chi Square test)	Time required for completion of the whole trial (SD male rats; 0.03 mg/kg oral, Solvent 99.1)	Avoidance rate (%) (SD male rats; 0.03 mg/kg oral)	Time required for completion of the whole trial (sec) (SD male rats; 0.3 mg/kg oral, Solvent 99.1)	Avoidance rate (%) (SD male rats; 0.3 mg/kg oral)	Time required for completion of the whole trial (sec) (SD male rats; 3.0 mg/kg oral, Solvent 99.1)	Rate of the rats exhibiting passive avoidance behavior (rats/total) (albino female rats; scopolamine alone 1 mg/kg s.c., Solvent 26/32)	Decrease of the learning results (lane selection frequency, second running) caused by bilateral ligation of the common carotid arteries ([1]; 1 mg/kg oral one hour before first trial, p<0.025 vs Solvent-administered group)	Decrease of the learning results (lane selection frequency, second running) caused by bilateral ligation of the common carotid arteries ([1]; 3 mg/kg oral one hour before first trial, p<0.005 vs Solvent-administered group)
CCn1c(=O)c2c(nc(/C=C/c3ccc(OC)c(OC)c3)n2C)n(CC)c1=O [Compound 2]	49.7 ± 2.1 NS %	49.4 ± 3.4 %	60.0 ± 3.0 %	50.6±1.5%	(53.1%)	17/32*	(75.0%)	24/32*	(84.4%)	27/32*	significantly increased	81.2 s	96.2%	64.9 * sec	97.2%	65.3 ** sec			
CN1[C@@H]2C[C@@H](OC(=O)[C@H](CO)c3ccccc3)C[C@H]1[C@@H]1O[C@@H]12 [Scopolamine, scopolamine, reference compound]																	4/32		
COc1cc(/C=C/c2nc3c(c(=O)n(C)c(=O)n3C)n2C)cc(OC)c1OC [Compound 1]														significantly reduced		significantly reduced		significantly improved	significantly improved
